In patent publication US20150208661A1, “METHOD FOR PREPARING BROMINE BASED BIOCIDAL AQUEOUS COMPOSITIONS” (BROMINE COMPOUNDS LTD., priority 2012, published 2015):

Assays:
[1] = system: Pseudomonas aeruginosa (ATCC 15442); assay: Biocidal activity against simulated biofilm system (alginate beads with entrapped bacteria); format: cell-based; conditions: pH 8
Excerpt: A biofilm simulation system, alginate beads, developed by the Biofilm Bozeman Institute Montana (Grobe, K. J, Zahller, J and Stewart P. S., 2002 in “Role of dose concentration in biocide efficacy against Pseudomonas aeruginosa Biofilms”, J. Industrial Microbiology & Biotechnology, vol. 29, pp 10-15), was used in order to evaluate the efficacy of the biocide solution against biofilm.
The biofilm simulation was created by entrapping bacteria in alginate gel beads. A plate of R2A agar was streaked with Pseudomonas aeruginosa (ATCC 15442) and incubated at 35° C. overnight. Buffer phosphate at pH 7.2 was used to scrap off the bacteria from the agar plate and to create a suspension. The bacterial suspension was mixed with an equal volume of an aqueous 4% sodium alginate solution, to make a final 2% alginate solution. The alginate and bacterial slurry were placed in a 50 ml syringe attached to a gauge needle, connected to a compressed air tank, allowing the syringe to be pressurized. At 20 psig pressure a stream of small drops was forced out and dropped into a stirred solution of 50 mM CaCl2. The Ca^+2 cross linked the alginate, and semi solid beads with entrapped bacterial cells were formed. The beads were allowed to stir in the CaCl2 solution for about 20 minutes, and then rinsed in a dilute 5 mM CaCl2 solution. Several flasks containing 100 beads each were incubated overnight at 35° C. on a rotating shaker in a buffer solution (at pH 8) with 5 mM addition of CaCl2 to maintain the beads structure. The resulting beads diameter was about 2 mm.
At the beginning of the experiment, the supernatant of the beads buffer suspension containing 5 mM CaCl2 was decanted and replaced by the 100 ml biocide solution with the required concentration (at pH 8). After different interval contact times, 10 beads were removed and placed in a 5 g/l sodium thiosulfate solution containing 50 mM sodium citrate. The sodium citrate was used to dissolve the alginate gel and release the bacteria into the solution. The neutralizer-citrate solution was placed in the refrigerator for 2 hours, than diluted and placed on R2A agar plates using pour plate technique. The plates were incubated at 35° C. for 24-48 hours and counted. The efficacy and toxicity of the neutralizer were checked as well as a control experiment without biocide addition. Four concentrations of active chlorine (0.5, 1, 2.5 and 5 ppm) were tested at four different contact times (5, 15, 30, and 60 min). Table 1-2 describe the surviving colony forming units (CFU) of the bacteria after different biocides treatment at different contact times.

[2] = system: Inoculum of bacteria (activated sludge taken from domestic waste water treatment plant in Haifa); assay: Biocidal efficacy under different TOC loading; format: cell-based; conditions: 30 min, pH 7
Protocol: Inoculum of bacteria (activated sludge taken from domestic waste water treatment plant in Haifa), R2A agar for general counting, and Tryptone were employed. The biocidal efficacy of the antifouling composition at different organic loads of 0, 10, 30 and 50 ppm TOC, was examined under different biocidal concentrations (5 and 10 ppm) at pH 7.
1) 1 ml of inoculum with the appropriate biocide concentration (5, 10 ppm) was added to tryptone solutions, 100 ml each, with different concentrations of TOC (0, 10, 30 and 50 ppm). […] The result stands for the bacteria count at zero time. 3) After 30 min. of shaking (100 rpm), 1 ml of each sample was transferred to a tube filled with 9 ml of the neutralization solution […].
An aliquot of 1 ml was taken from this solution and added to another tube containing 9 ml of buffer solution. The solution was mixed under vortex. This operation was repeated for 4 more times.
4) 1 ml from the two lowest dilutions was inoculated on a R2A agar (by the pour plate method). 5) After the plates were incubated at 25° C. for 5-7 days, the bacteria count was recorded.

## OCl [NaOCl, sodium hypochlorite]
[1]; biocide 0.5 ppm as Cl2, contact time 0 min
  survival of bacteria (CFU): 1.20E+07 CFU
[1]; biocide 0.5 ppm as Cl2, contact time 5 min
  survival of bacteria (CFU): 6.73E+06 CFU
[1]; biocide 0.5 ppm as Cl2, contact time 15 min
  survival of bacteria (CFU): 6.48E+06 CFU
[1]; biocide 0.5 ppm as Cl2, contact time 30 min
  survival of bacteria (CFU): 6.53E+06 CFU
[1]; biocide 0.5 ppm as Cl2, contact time 60 min
  survival of bacteria (CFU): 4.08E+06 CFU
[1]; biocide 1 ppm as Cl2, contact time 0 min
  survival of bacteria (CFU): 1.20E+07 CFU
[1]; biocide 1 ppm as Cl2, contact time 5 min
  survival of bacteria (CFU): 7.25E+06 CFU
[1]; biocide 1 ppm as Cl2, contact time 15 min
  survival of bacteria (CFU): 4.18E+06 CFU
[1]; biocide 1 ppm as Cl2, contact time 30 min
  survival of bacteria (CFU): 4.28E+06 CFU
[1]; biocide 1 ppm as Cl2, contact time 60 min
  survival of bacteria (CFU): 1.81E+06 CFU
[1]; biocide 2.5 ppm as Cl2, contact time 0 min
  survival of bacteria (CFU): 1.20E+07 CFU
[1]; biocide 2.5 ppm as Cl2, contact time 5 min
  survival of bacteria (CFU): 6.40E+06 CFU
[1]; biocide 2.5 ppm as Cl2, contact time 15 min
  survival of bacteria (CFU): 3.10E+06 CFU
[1]; biocide 2.5 ppm as Cl2, contact time 30 min
  survival of bacteria (CFU): 8.28E+05 CFU
[1]; biocide 2.5 ppm as Cl2, contact time 60 min
  survival of bacteria (CFU): 9.38E+04 CFU
[1]; biocide 5 ppm as Cl2, contact time 0 min
  survival of bacteria (CFU): 1.20E+07 CFU
[1]; biocide 5 ppm as Cl2, contact time 5 min
  survival of bacteria (CFU): 4.55E+06 CFU
[1]; biocide 5 ppm as Cl2, contact time 15 min
  survival of bacteria (CFU): 7.03E+05 CFU
[1]; biocide 5 ppm as Cl2, contact time 30 min
  survival of bacteria (CFU): 2.70E+03 CFU
[1]; biocide 5 ppm as Cl2, contact time 60 min
  survival of bacteria (CFU): 1.00 CFU
[2]; biocide 5 ppm, TOC 0 ppm
  % kill: 96.9%
[2]; biocide 5 ppm, TOC 10 ppm
  % kill: 86.0%
[2]; biocide 5 ppm, TOC 30 ppm
  % kill: 30.6%
[2]; biocide 5 ppm, TOC 50 ppm
  % kill: 30.6%
[2]; biocide 10 ppm, TOC 0 ppm
  % kill: 99.9%
[2]; biocide 10 ppm, TOC 10 ppm
  % kill: 98.8%
[2]; biocide 10 ppm, TOC 30 ppm
  % kill: 95.4%
[2]; biocide 10 ppm, TOC 50 ppm
  % kill: 88.3%
